Assay in all cases: NCI anticancer screen, dose series, 48 h
For assay [1], the system named is OVCAR-8 ovarian.
The test system of assay [2] is HOP-62 NSCLC.
The test system of assay [3] is M14 melanoma.
The subject of assay [4] is LOX IMVI melanoma.
Assay [5] deals with OVCAR-4 ovarian.
In assay [6] the test system is MDA-MB-231 breast.
The test system of assay [7] is HCC-2998 colon.
The subject of assay [8] is TK-10 renal.
The subject of assay [9] is NCI-H23 lung.
Assay [10] has as its system EKVX NSCLC.

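Following 48 hours of exposure in 96-well plates, responses at five concentrations were used to interpolate endpoints linearly. GI50 is the concentration that inhibits growth by half. TGI: concentration producing complete growth inhibition.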 Bounds are passed on as bounds.

As for `CCN(CC)CCNC(Cc1ccccc1)c1ccc(OCc2ccccc2)cc1` (stereo not drawn), the GI50 in [1] was 10.7 µM; in [2] it was 8.49 µM; in assay [3], 2.07 µM; in [4], 4.19 µM; in assay [5] it was 5.42 µM; in [6], 1.92 µM. Further, the GI50 in assay [7] is 5.17 µM. Moreover, the TGI in assay [1] is 24.4 µM; in assay [2], 21.7 µM; in assay [3], 5.09 µM; in assay [4] it was 15.9 µM; in assay [5], 19.4 µM; in assay [6] it was 6.65 µM. In addition, in assay [7], the TGI turned out to be 17.4 µM.
With `COc1ccc2c(c1)C(=O)CCc1cc(OC)c(OC)c(OC)c1-2`, the GI50 in assay [1] is less than 0.01 µM; in [9] it was less than 0.01 µM; in assay [3], less than 0.01 µM; in assay [4], less than 0.01 µM; in assay [5], 0.818 µM; in assay [6] it was less than 0.01 µM. Further, in assay [7], the GI50 was less than 0.01 µM. The TGI is more than 100 µM in [8]; 0.0617 µM in assay [9]; more than 100 µM in assay [3]; more than 100 µM in [4]; more than 100 µM in [5]; more than 100 µM in assay [6].
With `Nc1ncc(-c2cnn(C3CCNCC3)c2)cc1-c1nc2cc(Cl)ccc2o1`, the GI50 in assay [2] was 1.61 µM; in assay [8], 1.94 µM; in assay [9] it was 1.62 µM; in assay [3], 1.79 µM; in assay [4] it was 1.55 µM; in [6], 1.66 µM. Also, in assay [7], the GI50 is 1.47 µM. Further, the TGI came to 3.1 µM in assay [2]; 3.58 µM in assay [8]; 3.14 µM in assay [9]; 3.25 µM in assay [3]; 3.07 µM in assay [4]; 3.23 µM in [6]. This compound showed a TGI in [7] of 2.82 µM.
For the compound `C=C(C)C1CC2(C)C(C)CC(O)CC2C(OC(=O)C=C(C)C)C1O` (stereo not drawn), the TGI in assay [1], in assay [8], in assay [9], in assay [3], in [4] and in assay [5] was more than 100 µM in each case. Also, the TGI in [6], in [10] and in [7] was more than 100 µM throughout.
As to `O=C(O)CCCc1ccc2ccc3ccccc3c2c1`, the TGI in [1], in assay [2], in assay [8], in [9], in assay [3] and in assay [4] was more than 100 µM throughout. Further, the TGI in [5], in [6] and in assay [10] was more than 100 µM throughout.
For `COc1ccc2c(c1)C(=O)/C(=C/c1cccc(OCC(=O)c3ccccc3)c1)O2`, the GI50 in assay [1] was 16.4 µM; in assay [2], 14.5 µM; in assay [8], 2.45 µM; in assay [9], 4.37 µM; in assay [4], 2.83 µM; in assay [5], 2.72 µM. Also, the GI50 in assay [6] was 7.62 µM; in [10], 9.88 µM; in [7], 1.74 µM. Further, the TGI amounted to 31.4 µM in assay [1]; 28.5 µM in assay [2]; 5.5 µM in assay [8]; 15.8 µM in assay [9]; 9.54 µM in [4]; 6.37 µM in assay [5]. The TGI was 23.2 µM in [6], 29.1 µM in [10] and 3.16 µM in [7].
`O=C(O)CSCCc1ccccc1`: the TGI in [1], in assay [2], in assay [8], in [9], in [3] and in assay [4] was more than 100 µM throughout. Besides, the TGI in assay [5], in assay [6] and in assay [10] was more than 100 µM each time.
Consider `CN(C)CCOc1ccc([N+](=O)[O-])c2cccnc12`, for which the TGI in assay [1], in assay [2], in [8], in [9], in assay [3] and in assay [6] was more than 100 µM in each case. For the same compound, the TGI in assay [7] was more than 100 µM.
With `O=C1C(=O)c2ccccc2C(O)=C1C(C1=C(O)c2ccccc2C(=O)C1=O)c1ccc(Cl)cc1`, the TGI in assay [1] was 30.1 µM; in assay [2] it was 13.1 µM; in assay [8], 28.2 µM; in [9] it was 27.8 µM; in assay [3] it was 23.7 µM; in assay [4] it was 7.78 µM. Besides, the TGI in assay [5] stood at 18.6 µM; in assay [6], 22.7 µM; in [10], 32.1 µM.
With `CCN1C(=O)c2ccc3c4c(ccc(c24)C1=O)C(=O)N(CCCNCc1ccccc1OC)C3=O`, the GI50 in assay [1] was 0.438 µM; in [2], 0.925 µM; in [8], 2.52 µM; in [9] it was 0.782 µM; in assay [3], 0.69 µM; in assay [4], 0.314 µM. In addition, the GI50 is 0.152 µM in [5], 0.791 µM in [6] and 0.632 µM in assay [7]. The TGI in assay [1] is 2.87 µM; in [2] it was 2.78 µM; in assay [8], 7.6 µM; in [9], 3.68 µM; in assay [3], 2.1 µM; in assay [4], 1.31 µM. In addition, the results for the TGI in assay [5], in [6] and in assay [7] were 0.345 µM, 9.31 µM and 1.89 µM, respectively.
For the compound `COc1cc(Nc2ncccc2C(=O)Nc2nc3ccc(F)cc3s2)cc(OC)c1OC`, the GI50 in assay [1] was 3.62 µM; in assay [2] it was 5.78 µM; in assay [9], 2.27 µM; in [3], 3.08 µM; in assay [4], 3.87 µM; in assay [5] it was 2.73 µM. For the same compound, the GI50 is 4.61 µM in assay [6], 2.7 µM in [10] and 2.93 µM in assay [7]. For the same compound, the TGI in assay [1], in assay [2], in [9], in [3], in assay [4] and in assay [5] was more than 100 µM throughout. Also, the values for the TGI in [6], in assay [10] and in assay [7] were more than 100 µM, more than 100 µM and 6.96 µM, respectively.

The record behind these values is PubChem BioAssay (NCI).
